Measured values: PMC6522510 (Nature Communications, 2019)
Like-named read-outs stand apart in the source and are kept apart here.

Experiments:
U937 [1] = assay: Secondary dose-response HTS, Cell Titer Glo; type: cell-based, human; conditions: secondary high-throughput screen, U937; for EC50: Homo sapiens, U-937, read-out: average effective concentration, U937
CMS = assay: Secondary dose-response HTS, Cell Titer Glo; type: cell-based, human; conditions: for EC50: Homo sapiens, HTS, read-out: average effective concentration, CMS
ML2 = assay: Secondary dose-response HTS, Cell Titer Glo; type: cell-based, human; conditions: secondary high-throughput screen, ML-2; for EC50: Homo sapiens, read-out: average effective concentration, ML-2
M07e = assay: Secondary dose-response HTS, Cell Titer Glo; type: cell-based, human; conditions: secondary high-throughput screen; for EC50: Homo sapiens, M-07e, read-out: average effective concentration, M07e
CHRF288-11 [2] = assay: Secondary dose-response HTS, Cell Titer Glo; type: cell-based, human; conditions: secondary high-throughput screen, CHRF288-11; for EC50: Homo sapiens, HTS, read-out: average effective concentration, CHRF288-11
MOLM-13 [3] = assay: cells; parameters: species or system AML cell lines (8); Secondary HTS, 10-point dose-response in triplicate, Cell Titer Glo viability, four-parameter fit EC50; conditions: Homo sapiens, MOLM-13, 72 h, read-out: MOLM-13
MV4-11 [4] = assay: cells; parameters: species or system AML cell lines (8); Secondary HTS, 10-point dose-response in triplicate, Cell Titer Glo viability, four-parameter fit EC50; conditions: Homo sapiens, MV4-11, 72 h, read-out: MV4-11
CMK = assay: Secondary dose-response HTS, Cell Titer Glo; type: cell-based, human; conditions: CMK; for EC50: Homo sapiens, read-out: average effective concentration, CMK
MOLM-13 [5] = assay: Secondary dose-response HTS, Cell Titer Glo; type: cell-based, human; conditions: secondary high-throughput screen, MOLM-13; for EC50: Homo sapiens, read-out: average effective concentration, MOLM-13
MV4-11 [6] = assay: Secondary dose-response HTS, Cell Titer Glo; type: cell-based, human; conditions: secondary high-throughput screen, MV4-11; for EC50: Homo sapiens, read-out: average effective concentration, MV4-11
U937 [7] = assay: cells; parameters: species or system AML cell lines (8); Secondary HTS, 10-point dose-response in triplicate, Cell Titer Glo viability, four-parameter fit EC50; conditions: Homo sapiens, U-937, 72 h, read-out: U937
CHRF288-11 [8] = assay: cells; parameters: species or system AML cell lines (8); Secondary HTS, 10-point dose-response in triplicate, Cell Titer Glo viability, four-parameter fit EC50; conditions: 72 h, read-out: CHRF288-11
[9] = secondary high-throughput screen, CMS
[10] = secondary high-throughput screen

| EC50 (U937 [1]) | EC50 (MOLM-13 [3]) | EC50 (MV4-11 [4]) | EC50 (MOLM-13 [5]) | SMILES | EC50 (ML2) | EC50 (M07e; M07e) | EC50 (CHRF288-11 [2]) | EC50 (CMS; [9]) | EC50 (CMK; [10]) | average effective concentration, MV4-11 (MV4-11 [6]) | average effective concentration, CMK (CMK; [10]) | further results |
| --- | --- | --- | --- | --- | --- | --- | --- | --- | --- | --- | --- | --- |
| 220 nM | > 10000 nM | > 10000 nM | – | CC(C)[C@H](C(=O)Nc1ccc(C(=O)NO)cc1)c1ccccc1 [(S)-HDAC-42] | 330 nM | 160 nM | 260 nM | – | – | – | – | EC50 (CMS): 220 nM; EC50 (CMK): 38 nM |
| 30 nM | > 10000 nM | > 10000 nM | – | CN(C)Cc1c(C(=O)NCCOc2ccc(C(=O)NO)cc2)oc2ccccc12 [ABEXINOSTAT] | 93 nM | 26 nM | 37 nM | 34 nM | 12 nM | – | – | – |
| 1000 nM | > 10000 nM | > 10000 nM | – | COC(=O)[C@]12CCC(C)(C)C[C@H]1[C@H]1C(=O)C=C3[C@@]4(C)C=C(C#N)C(=O)C(C)(C)[C@@H]4CC[C@@]3(C)[C@]1(C)CC2 [BARDOXOLONE METHYL] | 880 nM | 4000 nM | 940 nM | 1100 nM | 1100 nM | – | – | – |
| – | – | – | 23 nM | O=c1[nH]c(=O)n([C@H]2C[C@H](O)[C@@H](CO)O2)cc1F [FLOXURIDINE] | 21 nM | 8200 nM | 67 nM | 7900 nM | 980 nM | – | – | EC50 (MV4-11 [6]): 130 nM; EC50 (U937 [7]): > 10000 nM |
| 3900 nM | – | – | 2900 nM | CCN(CC)CCCC(C)Nc1c2ccc(Cl)cc2nc2ccc(OC)cc12 (stereo not shown) [QUINACRINE] | > 10000 nM | 7700 nM | – | 5500 nM | 7700 nM | – | – | EC50 (MV4-11 [6]): 3800 nM; EC50 (CHRF288-11 [8]): > 10000 nM |
| – | – | – | – | COc1cc2c(NC3CCN(C)CC3)nc(N3CCCN(C)CC3)nc2cc1OCCCN(C)C [UNC0224] | – | – | – | – | – | Inactive | Inactive | average effective concentration, U937 (U937 [1]): Inactive; average effective concentration, MOLM-13 (MOLM-13 [5]): Inactive; average effective concentration, CMS (CMS; [9]): Inactive; average effective concentration, ML-2 (ML2): Inactive; average effective concentration, M07e (M07e; M07e): Inactive; average effective concentration, CHRF288-11 (CHRF288-11 [2]): Inactive |
| – | – | – | – | COc1cc2c(NC3CCN(C)CC3)nc(N3CCCN(C)CC3)nc2cc1OCCOCCN(C)C [UNC0321] | – | – | – | – | – | Inactive | Inactive | average effective concentration, U937 (U937 [1]): Inactive; average effective concentration, MOLM-13 (MOLM-13 [5]): Inactive; average effective concentration, CMS (CMS; [9]): Inactive; average effective concentration, ML-2 (ML2): Inactive; average effective concentration, M07e (M07e; M07e): Inactive; average effective concentration, CHRF288-11 (CHRF288-11 [2]): Inactive |
| 35 nM | – | – | 43 nM | CC[C@]1(O)C[C@H]2CN(CCc3c([nH]c4ccccc34)[C@@](C(=O)OC)(c3cc4c(cc3OC)N(C=O)[C@H]3[C@@](O)(C(=O)OC)[C@H](OC(C)=O)[C@]5(CC)C=CCN6CC[C@]43[C@@H]65)C2)C1 [VINCRISTINE] | 8 nM | 1 nM | 390 nM | 230 nM | > 10000 nM | – | – | EC50 (MV4-11 [6]): 20 nM |
| – | – | – | – | CCn1c(=O)c(-c2cc[nH]n2)cc2c(C)nc(N)nc21 [Voxtalisib] | – | – | – | – | – | Inactive | Inactive | average effective concentration, U937 (U937 [1]): Inactive; average effective concentration, MOLM-13 (MOLM-13 [5]): Inactive; average effective concentration, CMS (CMS; [9]): Inactive; average effective concentration, ML-2 (ML2): Inactive; average effective concentration, M07e (M07e; M07e): Inactive; average effective concentration, CHRF288-11 (CHRF288-11 [2]): Inactive |

| SMILES | EC50 (U937 [1]) | EC50 (MOLM-13 [3]) | EC50 (MV4-11 [4]) | EC50 (MOLM-13 [5]) | EC50 (ML2) | EC50 (M07e; M07e) | EC50 (CHRF288-11 [2]) | EC50 (CMS; [9]) | EC50 (CMK; [10]) | average effective concentration, MV4-11 (MV4-11 [6]) | average effective concentration, CMK (CMK; [10]) | further results |
| --- | --- | --- | --- | --- | --- | --- | --- | --- | --- | --- | --- | --- |
| Cc1ccc2nc(NCCN)c3ncc(C)n3c2c1 [BMS-345541] | 2300 nM | > 10000 nM | > 10000 nM | – | 2200 nM | – | 3800 nM | 5900 nM | 4700 nM | – | – | EC50 (M07e; […]): 6100 nM |
| COc1cc2c(NC3CCN(C(C)C)CC3)nc(C3CCCCC3)nc2cc1OCCCN1CCCC1 [UNC0638 HYDRATE] | 4500 nM | – | – | > 10000 nM | > 10000 nM | – | > 10000 nM | 6000 nM | – | Inactive | Inactive | EC50 (M07e; […]): 5000 nM |
